In patent publication US9260395B2, “Inhibitors of viral replication, their process of preparation and their therapeutical uses” (priority 2012, dated 2016) one finds EC50 data, which are given here for 23 compounds.

This test concerns NL4-3 strain of HIV-1. Nature of the test: Cyto-protection (CellTiter-Glo viability) assay of MT4 cells infected with NL4-3 virus; inhibition of HIV replication. It counts as cell-based. The procedure:
Preparation of Virus stock of the NL4-3 strain of HIV-1 (Adachi et al, J Virol, 1986, 59(2):284-91).
The virus was prepared as described in Lopez et al (Lopez et al, Proc Natl Acad Sci USA., 2006, 103(40):14947-52, by transfecting 2×10^6 293 T cells (CRL-1573, ATCC) with following modifications: 6 μg of NL4-3 proviral DNA molecular clone were mixed with Fugene 6 transfection reagent from Roche, and used according to manufacturer's instructions. Forty eight hours later, transfected cell supernatants were harvested, filtered through 0.45-μm-pore-size filters, quantified for HIV-1 p24 antigen by using a Innotest HIV antigen mAb assay (Ingen) according to manufacturer's instructions, and used in infection experiments.
Serial dilutions of compounds to be tested were prepared in complete RPMI medium from 10 mM DMSO stock solutions, and I in 96 well Falcon 353072 Microtest[…]distributed in a volume of 20™ tissue culture plate, in order to get 0.5% DMSO final concentration in each well, after the addition of infected cells. Control wells contained also 0.5% DMSO final concentration but no compound.
MT4 cells (from the NIH AIDS Research and Reference Reagent Program) in RPMI complete medium were counted (10×10^6 cells per well in Falcon 353047 Multiwell™ 24 well) and infected for 2 hours at 37°, at a multiplicity of infection (moi) of 0.0001-0.00001. Cells were then centrifuged 3 min at 3000 rpm, and washed two times in 1 ml PBS to remove viruses that have not entered in cells. Infected cells were resuspended in complete RPMI at 1.25×10^6 cells/ml and 80 μl of infected cells were distributed in each well containing compound to be tested or control wells. The plates were then incubated at 37° for 5 days.
Assay used to measure the inhibition of HIV replication by the compounds (according to Gregg S. Jones et al., Antimicrobial Agents and Chemotherapy, 2009, 53 (3): 1194-1203).
After 5 days of incubation, microplates were equilibrated to room temperature for 30 mn and then 50 μl of CellTiter-Glo reagent (Promega Biosciences, Inc., Madison Wis., USA) were added to each well. Cell lysis was carried out at room temperature during 10 min, 150μl of lysates were transferred in Packard Optiplate 96 well, and luminescence was read on a Fluoroskan (Thermo Scientific).
The EC50, or effective concentration 50, is the concentration of compound leading to 50% of cyto-protection in a Cell-Titer-Glo® viability assay based on MT4 cells infected with NL4-3 virus (table 1).

Setting [1] is: Human immunodeficiency virus 1, NL43, 120 h, concentration leading to 50% of cyto-protection, MT4 cells infected with NL4-3 virus, 5 days incubation, CellTiter-Glo, read-out: EC50.

Structures are written as SMILES. Read-outs that look alike come from different tables or passages of the source.

Turning to `Cn1nc(-c2ccccc2)c(C2=CCC(C)(C)CC2)c1C(OC(C)(C)C)C(=O)O` (centres unmarked) [Example 1, 2-(tert-butoxy)-2-[4-(4,4-dimethylcyclohex-1-en-1-yl)-1-methyl-3-phenyl-1H-pyrazol-5-yl]acetic acid], the EC50 under setting [1] is 480 nM.
Regarding `Cn1nc(-c2ccccc2)c(-c2ccc3c(c2)CCCO3)c1C(OC(C)(C)C)C(=O)O` (centres unmarked) [Example 2, 2-(tert-butoxy)-2-[4-(3,4-dihydro-2H-1-benzopyran-6-yl)-1-methyl-3-phenyl-1H-pyrazol-5-yl]acetic acid], under setting [1], the EC50 turned out to be 680 nM.
Take `Cn1nc(-c2cccs2)c(-c2ccc3c(c2)CCCO3)c1C(OC(C)(C)C)C(=O)O` (centres unmarked) [Example 3, 2-(tert-butoxy)-2-[4-(3,4-dihydro-2H-1-benzopyran-6-yl)-1-methyl-3-(thiophen-2-yl)-1H-pyrazol-5-yl]acetic acid]: under setting [1], the EC50 was 290 nM.
Turning to `Cn1nc(-c2ccsc2)c(-c2ccc3c(c2)CCCO3)c1C(OC(C)(C)C)C(=O)O` (centres unmarked) [Example 4, 2-(tert-butoxy)-2-[4-(3,4-dihydro-2H-1-benzopyran-6-yl)-1-methyl-3-(thiophen-3-yl)-1H-pyrazol-5-yl]acetic acid], the EC50 under setting [1] amounted to 280 nM.
For the compound `Cn1nc(-c2ccsc2)c(C2=CCC(C)(C)CC2)c1C(OC(C)(C)C)C(=O)O` (centres unmarked) [Example 5, 2-(tert-butoxy)-2-[4-(4,4-dimethylcyclohex-1-en-1-yl)-1-methyl-3-(thiophen-3-yl)-1H-pyrazol-5-yl]acetic acid], the EC50 under setting [1] worked out at 270 nM.
Consider `Cn1nc(-c2cccs2)c(C2=CCC(C)(C)CC2)c1C(OC(C)(C)C)C(=O)O` (centres unmarked) [Example 6, 2-(tert-butoxy)-2-[4-(4,4-dimethylcyclohex-1-en-1-yl)-1-methyl-3-(thiophen-2-yl)-1H-pyrazol-5-yl]acetic acid], for which the EC50 under setting [1] amounted to 470 nM.
Turning to `Cc1c(-c2c(-c3cccs3)nn(C)c2C(OC(C)(C)C)C(=O)O)ccc2c1CCCO2` (centres unmarked) [Example 7, 2-(tert-butoxy)-2-[1-methyl-4-(5-methyl-3,4-dihydro-2H-1-benzopyran-6-yl)-3-(thiophen-2-yl)-1H-pyrazol-5-yl]acetic acid], under setting [1], the EC50 stood at 410 nM.
With `Cn1nc(-c2nccs2)c(-c2ccc3c(c2)CCCO3)c1C(OC(C)(C)C)C(=O)O` (centres unmarked) [Example 8, 2-(tert-butoxy)-2-[4-(3,4-dihydro-2H-1-benzopyran-6-yl)-1-methyl-3-(1,3-thiazol-2-yl)-1H-pyrazol-5-yl]acetic acid], under setting [1], the concentration giving a half-maximal response (EC50) worked out at 3700 nM.
Same read-out and setting: the result for `Cn1nc(-c2ccccn2)c(-c2ccc3c(c2)CCCO3)c1C(OC(C)(C)C)C(=O)O` (centres unmarked) [Example 9, 2-(tert-butoxy)-2-[4-(3,4-dihydro-2H-1-benzopyran-6-yl)-1-methyl-3-(pyridin-2-yl)-1H-pyrazol-5-yl]acetic acid] reads 3700 nM.
Take `Cc1c(-c2c(-c3cccs3)nn(C)c2C(OC(C)(C)C)C(=O)O)cc(F)c2c1CCCO2` (centres unmarked) [Example 10, 2-(tert-butoxy)-2-[4-(8-fluoro-5-methyl-3,4-dihydro-2H-1-benzopyran-6-yl)-1-methyl-3-(thiophen-2-yl)-1H-pyrazol-5-yl]acetic acid]: the EC50 under setting [1] was 1100 nM.
Consider `CCCc1cc(-c2nn(C)c(C(OC(C)(C)C)C(=O)O)c2-c2ccc3c(c2)CCCO3)cs1` (centres unmarked) [Example 11, 2-(tert-butoxy)-2-[4-(3,4-dihydro-2H-1-benzopyran-6-yl)-1-methyl-3-(5-propylthiophen-3-yl)-1H-pyrazol-5-yl]acetic acid], for which, under setting [1], the EC50 amounted to 830 nM.
Regarding `Cn1nc(C2=CCCC2)c(-c2ccc3c(c2)CCCO3)c1C(OC(C)(C)C)C(=O)O` (centres unmarked) [Example 12, 2-(tert-butoxy)-2-[3-(cyclopent-1-en-1-yl)-4-(3,4-dihydro-2H-1-benzopyran-6-yl)-1-methyl-1H-pyrazol-5-yl]acetic acid], the EC50 under setting [1] was 240 nM.
As for `Cn1nc(C2=CCCCC2)c(-c2ccc3c(c2)CCCO3)c1C(OC(C)(C)C)C(=O)O` (centres unmarked) [Example 13, 2-(tert-butoxy)-2-[3-(cyclohex-1-en-1-yl)-4-(3,4-dihydro-2H-1-benzopyran-6-yl)-1-methyl-1H-pyrazol-5-yl]acetic acid], under setting [1], the EC50 was 170 nM.
Consider `Cn1nc(C2=CCC(C)(C)CC2)c(-c2ccc3c(c2)CCCO3)c1C(OC(C)(C)C)C(=O)O` (centres unmarked) [Example 14, 2-(tert-butoxy)-2-[4-(3,4-dihydro-2H-1-benzopyran-6-yl)-3-(4,4-dimethylcyclohex-1-en-1-yl)-1-methyl-1H-pyrazol-5-yl]acetic acid], for which the EC50 under setting [1] was 1700 nM.
The compound `Cn1nc(C2=CC3CCC2C3)c(-c2ccc3c(c2)CCCO3)c1C(OC(C)(C)C)C(=O)O` (centres unmarked) [Example 15, 2-(3-{bicyclo[2.2.1]hept-2-en-2-yl}-4-(3,4-dihydro-2H-1-benzopyran-6-yl)-1-methyl-1H-pyrazol-5-yl)-2-(tert-butoxy)acetic acid] registered an EC50 (Human immunodeficiency virus 1, NL43, MT4, 120 h) of 550 nM.
Turning to `Cn1nc(C2=CCCCCC2)c(-c2ccc3c(c2)CCCO3)c1C(OC(C)(C)C)C(=O)O` (centres unmarked) [Example 16, 2-(tert-butoxy)-2-[3-(cyclohept-1-en-1-yl)-4-(3,4-dihydro-2H-1-benzopyran-6-yl)-1-methyl-1H-pyrazol-5-yl]acetic acid], the EC50 under setting [1] came to 870 nM.
Turning to `CC1C=C(c2nn(C)c(C(OC(C)(C)C)C(=O)O)c2-c2ccc3c(c2)CCCO3)CCC1` (centres unmarked) [Example 17, 2-(tert-butoxy)-2-[4-(3,4-dihydro-2H-1-benzopyran-6-yl)-1-methyl-3-(3-methylcyclohex-1-en-1-yl)-1H-pyrazol-5-yl]acetic acid], the EC50 under setting [1] came out at 740 nM.
Turning to `CC1CCCC=C1c1nn(C)c(C(OC(C)(C)C)C(=O)O)c1-c1ccc2c(c1)CCCO2` (centres unmarked) [Example 18, 2-(tert-butoxy)-2-[4-(3,4-dihydro-2H-1-benzopyran-6-yl)-1-methyl-3-(6-methylcyclohex-1-en-1-yl)-1H-pyrazol-5-yl]acetic acid], the EC50 under setting [1] worked out at 500 nM.
On the same count and under the same terms, the same measure for `Cn1nc(C2CCCC2)c(-c2ccc3c(c2)CCCO3)c1C(OC(C)(C)C)C(=O)O` (centres unmarked) [Example 19, 2-(tert-butoxy)-2-[3-cyclopentyl-4-(3,4-dihydro-2H-1-benzopyran-6-yl)-1-methyl-1H-pyrazol-5-yl]acetic acid]: 3900 nM; for `Cn1nc(C2CCCCC2)c(-c2ccc3c(c2)CCCO3)c1C(OC(C)(C)C)C(=O)O` (centres unmarked) [Example 20, 2-(tert-butoxy)-2-[3-cyclohexyl-4-(3,4-dihydro-2H-1-benzopyran-6-yl)-1-methyl-1H-pyrazol-5-yl]acetic acid]: 1400 nM.
As for `Cn1nc(CC2CCCC2)c(-c2ccc3c(c2)CCCO3)c1C(OC(C)(C)C)C(=O)O` (centres unmarked) [Example 21, 2-(tert-butoxy)-2-[3-(cyclopentylmethyl)-4-(3,4-dihydro-2H-1-benzopyran-6-yl)-1-methyl-1H-pyrazol-5-yl]acetic acid], under setting [1], the EC50 came to 9300 nM.
Take `C=C(C)c1nn(C)c(C(OC(C)(C)C)C(=O)O)c1-c1ccc2c(c1)CCCO2` (centres unmarked) [Example 22, 2-(tert-butoxy)-2-[4-(3,4-dihydro-2H-1-benzopyran-6-yl)-1-methyl-3-(prop-1-en-2-yl)-1H-pyrazol-5-yl]acetic acid]: the EC50 under setting [1] was found to be 8000 nM.
For the compound `C=C(c1nn(C)c(C(OC(C)(C)C)C(=O)O)c1-c1ccc2c(c1)CCCO2)C1CCCC1` (centres unmarked) [Example 23, 2-(tert-butoxy)-2-[3-(1-cyclopentylethenyl)-4-(3,4-dihydro-2H-1-benzopyran-6-yl)-1-methyl-1H-pyrazol-5-yl]acetic acid], the EC50 under setting [1] worked out at 2000 nM.
